Test results from ChEMBL document CHEMBL5725267, “Enhancer of zeste homolog 2 inhibitors” (2016).

Experiment: Scintillation Proximity Assay (SPA): Protocol 2: Compounds contained herein were evaluated for their ability to inhibit the methyltransferase activity of EZH2 within the PRC2 complex. Human PRC2 complex was prepared by co-expressing each of the 5 member proteins (FLAG-EZH2, EED, SUZ12, RbAp48, AEBP2) in Sf9 cells followed by co-purification. Enzyme activity was measured in a scintillation proximity assay (SPA) where a tritiated methyl group is transferred from 3H-SAM to a lysine residue on a biotinylated, unmethylated peptide substrate derived from histone H3. The peptides were captured on streptavidin-coated SPA beads and the resulting signal was read on a ViewLux plate reader.Part A. Compound Preparation 4. Prepare 10 mM stock of compounds from solid in 100% DMSO. 5. Set up an 11-point serial dilution (1:4 dilution, top concentration 10 mM) in 100% DMSO for each test compound in a 384 well plate leaving columns 6 and 18 for DMSO controls. 6. Dispense 10 nL of compound from the dilution plate into reaction plates (Corning, 384-well polystyrene NBS, Cat#3673). Percent inhibition was calculated relative to the DMSO control for each compound concentration and the resulting values were fit using standard IC50 fitting parameters within the ABASE data fitting software package.
Format: biochemical

Which IC50 does the source give for `C/C=C(\CCCN1CCC(N(C)C)CC1)c1scc(C(=O)NCc2c(C)cc(C)[nH]c2=O)c1C` here?
Its IC50 is 200 nM.

Which IC50 does the source give for `C/C=C(/c1scc(C(=O)NCc2c(C)cc(C)[nH]c2=O)c1C)[C@H]1CC[C@H](NC(=O)OC(C)(C)C)CC1` here?
Its IC50 is 100 nM.

For `C/C=C(\CCCN1CCN(C)CC1)c1scc(C(=O)NCc2c(C)cc(C)[nH]c2=O)c1C`, which IC50 is on record?
Its IC50 is 251 nM.

For `C/C=C(\CCN1CCOCC1)c1scc(C(=O)NCc2c(C)cc(C)[nH]c2=O)c1C`, which IC50 is on record?
Its IC50 is 1000 nM.
